Data from US10654853B2, “Spiro-condensed pyrrolidine derivatives as deubiquitylating enzymes (DUB) inhibitors” (MISSION THERAPEUTICS LIMITED, priority 2016, dated 2020).

Biological target: Cezanne 1 (Homo sapiens (Human), UniProt Q6GQQ9)
Experiment: Cezanne 1 biochemical IC50 assay (fluorescence polarisation, TAMRA labelled peptide linked to ubiquitin)
Details: Cezanne 1 biochemical IC50 assay; 30 min pre-incubation, read after 2 hr at room temperature; read-out: IC50 range
Description: The Cezanne 1 construct was PCR amplified and cloned into a pFLAG-CMV-6c vector (Sigma-Aldrich) with an N-terminal FLAG tag. HEK293T cells were transfected with FLAG-Cezanne 1 using TransIT-LT1 transfection reagent (Mirus) according to the manufacturer's instructions. Cells were harvested 48 hours after transfection. […] The resin was washed two times with low salt buffer and one time with high salt buffer (20 mM Tris, pH 7.5, 500 mM NaCl, 0.5 mM EDTA, 5 mM beta-mercaptoethanol, protease inhibitors (complete mini, Roche) and phosphatase inhibitors (PhosSTOP mini, Roche). To elute the bound Cezanne 1, elution buffer (10 mM Tris, pH 7.5, 150 mM NaCl, 0.5 mM EDTA, 10% glycerol, 0.5% NP40, 5 mM beta-mercaptoethanol, 0.15 mg/ml 3× FLAG peptide (Sigma-Aldrich)) was added to the resin and incubated at 4° C. for 2.5 hours while rotating. The resin was centrifuged at 4000 rpm for 30 seconds, and the supernatant containing purified FLAG-Cezanne 1 was removed and stored at −80° C. […] Dilution plates were prepared at 21 times the final concentration (2100 μM for a final concentration of 100 μM) in 50% DMSO in a 96-well polypropylene V-bottom plate (Greiner #651201). […] Reactions were performed in duplicate in black 384 well plates (small volume, Greiner 784076) in a final reaction volume of 21 μl. Either 1 μl of 50% DMSO or diluted compound was added to the plate. Cezanne 1 was diluted in reaction buffer (40 mM Tris, pH 7.5, 0.005% Tween 20, 0.5 mg/ml BSA, 5 mM—beta-mercaptoethanol) to the equivalent of 0.005 μl/well and 10 μl of diluted Cezanne 1 was added to the compound. Enzyme and compound were incubated for 30 min at room temp. Reactions were initiated by the addition of 50 nM of TAMRA labelled peptide linked to ubiquitin via an iso-peptide bond as fluorescence polarisation substrate. Reactions were read immediately after addition of substrate and following a 2 hr incubation at room temperature. Readings were performed on a Pherastar Plus (BMG Labtech). λ Excitation 540 nm; λ Emission 590 nm.

Chain of Cezanne 1 (Q6GQQ9 whole entry): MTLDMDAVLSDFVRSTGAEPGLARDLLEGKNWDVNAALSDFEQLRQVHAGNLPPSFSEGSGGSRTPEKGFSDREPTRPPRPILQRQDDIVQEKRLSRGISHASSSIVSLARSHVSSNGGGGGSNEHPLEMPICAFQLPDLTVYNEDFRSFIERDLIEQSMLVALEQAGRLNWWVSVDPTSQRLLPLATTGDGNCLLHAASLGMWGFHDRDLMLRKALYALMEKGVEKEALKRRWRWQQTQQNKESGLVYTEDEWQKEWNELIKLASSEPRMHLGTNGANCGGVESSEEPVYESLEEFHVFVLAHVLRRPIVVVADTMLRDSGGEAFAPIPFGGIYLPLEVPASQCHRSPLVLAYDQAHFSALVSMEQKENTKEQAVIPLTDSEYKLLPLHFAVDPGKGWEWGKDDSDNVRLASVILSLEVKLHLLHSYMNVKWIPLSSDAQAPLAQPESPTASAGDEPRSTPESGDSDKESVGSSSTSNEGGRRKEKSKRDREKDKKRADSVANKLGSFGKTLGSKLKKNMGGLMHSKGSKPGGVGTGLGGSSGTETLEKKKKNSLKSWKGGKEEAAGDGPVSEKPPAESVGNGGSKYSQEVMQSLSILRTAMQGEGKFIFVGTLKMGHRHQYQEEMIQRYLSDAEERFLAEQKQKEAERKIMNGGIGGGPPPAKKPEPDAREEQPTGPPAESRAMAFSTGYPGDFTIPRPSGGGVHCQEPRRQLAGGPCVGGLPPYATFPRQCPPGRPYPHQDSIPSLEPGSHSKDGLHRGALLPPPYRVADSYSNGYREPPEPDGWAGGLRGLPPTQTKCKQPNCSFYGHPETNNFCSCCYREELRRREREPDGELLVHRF

First: Cn1cc(-c2ccc3c(c2)NC(=O)C2(CCN(C#N)C2)C3)ccc1=O (stereo not drawn) [Example 39, 7′-(1-Methyl-6-oxo-1,6-dihydropyridin-3-yl)-2′-oxo-1′,4′-dihydro-2′H-spiro[pyrrolidine-3,3′-quinoline]-1-carbonitrile]
Second: Cc1nc2cc(-c3ccc4c(c3)NC(=O)C3(CCN(C#N)C3)C4)ccc2s1 (stereo not drawn) [Example 40, 7′-(2-Methylbenzo[d]thiazol-5-yl)-2′-oxo-1′,4′-dihydro-2′H-spiro[pyrrolidine-3,3′-quinoline]-1-carbonitrile]
The IC50 of the first is higher: 1000 to 10000 nM for the first, 100 to 1000 nM for the second.

N#CN1CCC2(Cc3cc(-c4ccccc4)ccc3NC2=O)C1 (stereo not drawn) [Example 41, 2′-Oxo-6′-phenyl-1′,4′-dehydro-2′H-spiro[pyrrolidine-3,3′-quinoline]-1-carbonitrile] and N#CN1CC[C@]2(Cc3cc(-c4ccccc4)ccc3NC2=O)C1 [Example 67, (R)-2′-Oxo-6′-phenyl-1′,4′-dihydro-2′H-spiro[pyrrolidine-3,3′-quinoline]-1-carbonitrile] fall in the same range of IC50: 100 to 1000 nM for the first, 100 to 1000 nM for the second.

N#Cc1ccc(-c2ccc3c(c2)CC2(CCN(C#N)C2)C(=O)N3)cc1 (stereo not drawn) [Example 42, 6′-(4-Cyanophenyl)-2′-oxo-1′,4′-dihydro-2′H-spiro[pyrrolidine-3,3′-quinoline]-1-carbonitrile] and N#CN1CCC2(Cc3cc(-c4ccc(F)cc4)ccc3NC2=O)C1 (stereo not drawn) [Example 44, 6′-(4-Fluorophenyl)-2′-oxo-1′,4′-dihydro-2′H-spiro[pyrrolidine-3,3′-quinoline]-1-carbonitrile] fall in the same range of IC50: 100 to 1000 nM for the first, 100 to 1000 nM for the second.

N#Cc1cccc(-c2ccc3c(c2)CC2(CCN(C#N)C2)C(=O)N3)c1 (stereo not drawn) [Example 43, 6′-(3-Cyanophenyl)-2′-oxo-1′,4′-dihydro-2′H-spiro[pyrrolidine-3,3′-quinoline]-1-carbonitrile] and N#CN1CCC2(Cc3cc(-c4cccc(F)c4)ccc3NC2=O)C1 (stereo not drawn) [Example 45, 6′-(3-Fluorophenyl)-2′-oxo-1′,4′-dihydro-2′H-spiro[pyrrolidine-3,3′-quinoline]-1-carbonitrile] fall in the same range of IC50: 100 to 1000 nM for the first, 100 to 1000 nM for the second.

CN(C)C(=O)c1ccc2c(c1)NC(=O)C1(CCN(C#N)C1)C2 (stereo not drawn) [Example 46, 1-Cyano-N,N-dimethyl-2′-oxo-1′,4′-dihydro-2′H-spiro[pyrrolidine-3,3′-quinoline]-7′-carboxamide] and CNC(=O)c1ccc2c(c1)NC(=O)C1(CCN(C#N)C1)C2 (stereo not drawn) [Example 47, 1-Cyano-N-methyl-2′-oxo-1′,4′-dihydro-2′H-spiro[pyrrolidine-3,3′-quinoline]-7′-carboxamide] fall in the same range of IC50: 1000 to 10000 nM for the first, 1000 to 10000 nM for the second.

First: N#CN1CCC2(C1)Oc1ncccc1NC2=O (stereo not drawn) [Example 48, 2-Oxo-1,2-dihydrospiro[pyrido[2,3-b][1,4]oxazine-3,3′-pyrrolidine]-1′-carbonitrile]
Second: N#CN1CC[C@@]2(C1)Oc1ncccc1NC2=O [Example 65, (S)-2-Oxo-1,2-dihydrospiro[pyrido[2,3-b][1,4]oxazine-3,3′-pyrrolidine]-1′-carbonitrile]
The IC50 of the first is lower: 100 to 1000 nM for the first, 1000 to 10000 nM for the second. The first is the more potent here.

N#CN1CCC2(C1)Oc1ncc(-c3ccccc3)cc1NC2=O (stereo not drawn) [Example 49, 2-Oxo-7-phenyl-1,2-dihydrospiro[pyrido[2,3-b][1,4]oxazine-3,3′-pyrrolidine]-1′-carbonitrile] and N#CN1CC[C@@]2(C1)Oc1ncc(-c3ccccc3)cc1NC2=O [Example 64, (S)-2-Oxo-7-phenyl-1,2-dihydrospiro[pyrido[2,3-b][1,4]oxazine-3,3′-pyrrolidine]-1′-carbonitrile] fall in the same range of IC50: 100 to 1000 nM for the first, 100 to 1000 nM for the second.

N#Cc1ccc(-c2cnc3c(c2)NC(=O)C2(CCN(C#N)C2)O3)cc1 (stereo not drawn) [Example 50, 7-(4-Cyanophenyl)-2-oxo-1,2-dihydrospiro[pyrido[2,3-b][1,4]oxazine-3,3′-pyrrolidine]-1′-carbonitrile] and N#CN1CCC2(C1)Oc1ncc(-c3ccc(F)cc3)cc1NC2=O (stereo not drawn) [Example 52, 7-(4-Fluorophenyl)-2-oxo-1,2-dihydrospiro[pyrido[2,3-b][1,4]oxazine-3,3′-pyrrolidine]-1′-carbonitrile] fall in the same range of IC50: 100 to 1000 nM for the first, 100 to 1000 nM for the second.

N#Cc1cccc(-c2cnc3c(c2)NC(=O)C2(CCN(C#N)C2)O3)c1 (stereo not drawn) [Example 51, 7-(3-Cyanophenyl)-2-oxo-1,2-dihydrospiro[pyrido[2,3-b][1,4]oxazine-3,3′-pyrrolidine]-1′-carbonitrile] and N#CN1CCC2(C1)Oc1ncc(-c3cccc(F)c3)cc1NC2=O (stereo not drawn) [Example 53, 7-(3-Fluorophenyl)-2-oxo-1,2-dihydrospiro[pyrido[2,3-b][1,4]oxazine-3,3′-pyrrolidine]-1′-carbonitrile] fall in the same range of IC50: 100 to 1000 nM for the first, 100 to 1000 nM for the second.

N#CN1CCC2(C1)Oc1nc(-c3ccccc3)ccc1NC2=O (stereo not drawn) [Example 54, 2-Oxo-6-phenyl-1,2-dihydrospiro[pyrido[2,3-b][1,4]oxazine-3,3′-pyrrolidine]-1′-carbonitrile] and N#CN1CCC2(C1)Nc1ncc(-c3ccccc3)cc1NC2=O (stereo not drawn) [Example 57, 2-Oxo-7-phenyl-1,4-dihydro-2H-spiro[pyrido[2,3-b]pyrazine-3,3′-pyrrolidine]-1′-carbonitrile] fall in the same range of IC50: 100 to 1000 nM for the first, 100 to 1000 nM for the second.

First: N#CN1CCC2(C1)Nc1ncccc1NC2=O (stereo not drawn) [Example 55, 2-Oxo-1,4-dihydro-2H-spiro[pyrido[2,3-b]pyrazine-3,3′-pyrrolidine]-1′-carbonitrile]
Second: N#CN1CC[C@@]2(C1)Nc1ncccc1NC2=O [Example 66, (S)-2-Oxo-1,4-dihydro-2H-spiro[pyrido[2,3-b]pyrazine-3,3′-pyrrolidine]-1′-carbonitrile]
The IC50 of the first is higher: 1000 to 10000 nM for the first, 100 to 1000 nM for the second. The second is the more potent here.

N#CN1CCC2(C1)Nc1nc(C(F)(F)F)ccc1NC2=O (stereo not drawn) [Example 56, 2-Oxo-6-(trifluoromethyl)-1,4-dihydro-2H-spiro[pyrido[2,3-b]pyrazine-3,3′-pyrrolidine]-1′-carbonitrile] and N#CN1CCC2(C1)Nc1cccnc1NC2=O (stereo not drawn) [Example 61, 3-Oxo-3,4-dihydro-1H-spiro[pyrido[2,3-b]pyrazine-2,3′-pyrrolidine]-1′-carbonitrile] fall in the same range of IC50: 1000 to 10000 nM for the first, 1000 to 10000 nM for the second.

N#Cc1ccc(-c2cnc3c(c2)NC(=O)C2(CCN(C#N)C2)N3)cc1 (stereo not drawn) [Example 58, 7-(4-Cyanophenyl)-2-oxo-1,4-dihydro-2H-spiro[pyrido[2,3-b]pyrazine-3,3′-pyrrolidine]-1′-carbonitrile] and N#CN1CCC2(C1)Nc1ncc(-c3ccc(F)cc3)cc1NC2=O (stereo not drawn) [Example 59, 7-(4-Fluorophenyl)-2-oxo-1,4-dihydro-2H-spiro[pyrido[2,3-b]pyrazine-3,3′-pyrrolidine]-1′-carbonitrile] fall in the same range of IC50: 100 to 1000 nM for the first, 100 to 1000 nM for the second.

N#CN1CCC2(C1)Nc1ncc(-c3cccc(F)c3)cc1NC2=O (stereo not drawn) [Example 60, 7-(3-Fluorophenyl)-2-oxo-1,4-dihydro-2H-spiro[pyrido[2,3-b]pyrazine-3,3′-pyrrolidine]-1′-carbonitrile] and N#CN1CC[C@@]2(C1)Nc1ncc(-c3ccccc3)cc1NC2=O [Example 68, (S)-2-Oxo-7-phenyl-1,4-dihydro-2H-spiro[pyrido[2,3-b]pyrazine-3,3′-pyrrolidine]-1′-carbonitrile] fall in the same range of IC50: 100 to 1000 nM for the first, 100 to 1000 nM for the second.

First: N#CN1CCC2(CCNC2=O)C1 (stereo not drawn) [Example 62, 6-Oxo-2,7-diazaspiro[4.4]nonane-2-carbonitrile]
Second: N#CN1CC[C@]2(CCNC2=O)C1 [Example 63, (R)-6-Oxo-2,7-diazaspiro[4.4]nonane-2-carbonitrile]
The IC50 of the first is higher: greater than 10000 nM for the first, 1000 to 10000 nM for the second. The second is the more potent here.
